According to patent publication US10517889B2, “Modulators of SMAD7 expression” (Ionis Pharmaceuticals, Inc., priority 2017, dated 2019):
Strand notation (5' to 3'): a small letter for the sugar, then the base; units joined by * are phosphorothioate-linked, units joined directly phosphodiester-linked; [ ] holds rarer units or linkages, { } end groups; capitals alone tell only the bases. k = constrained ethyl (cEt); [5mC] = 5-methylcytosine; d = 2'-deoxy (DNA)

System: human SMAD7 mRNA
Test: Antisense inhibition of human SMAD7 mRNA expression in Hep3B cells by 3-10-3 cEt gapmers, 10,000 nM, electroporation (Example 2)
Format: cell-based
Details: Hep3B cells, electroporation with 10,000 nM antisense oligonucleotide, approximately 24 hours, RTS5062, percent inhibition of SMAD7 mRNA relative to untreated control cells
Method in brief: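 Hep3B, 20,000 cells/well; electroporation, 10,000 nM ASO; ~24 h. Readout: SMAD7 mRNA by qRT-PCR (RTS5062), RIBOGREEN-normalised; % inhibition vs untreated.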

Substance	% Inhibition [%]
799603 (kG*k[5mC]*k[5mC]*d[5mC]*dA*dT*dT*dA*dT*dG*dA*dA*dT*kA*k[5mC]*kA; antisense) [compound 799603]	52
799604 (k[5mC]*kA*kT*d[5mC]*dA*d[5mC]*d[5mC]*dT*d[5mC]*d[5mC]*d[5mC]*d[5mC]*dT*k[5mC]*k[5mC]*kA; antisense) [compound 799604]	0
799606 (kT*kT*kT*dA*d[5mC]*dA*dA*dA*dA*d[5mC]*dT*d[5mC]*dT*k[5mC]*kT*kG; antisense) [compound 799606]	50
799609 (k[5mC]*k[5mC]*k[5mC]*d[5mC]*dA*dT*dG*dG*dA*dA*d[5mC]*dG*dA*kT*k[5mC]*kA; antisense) [compound 799609]	41
799610 (kG*kG*kG*dA*dG*dA*dA*dA*d[5mC]*dT*d[5mC]*d[5mC]*dT*k[5mC]*kA*kG; antisense) [compound 799610]	45
799611 (kT*kG*kT*dG*dA*dA*dA*dG*dA*dG*dG*d[5mC]*dT*k[5mC]*kA*kG; antisense) [compound 799611]	37
799612 (kA*kA*kA*d[5mC]*dA*dG*d[5mC]*dA*d[5mC]*dA*d[5mC]*dA*dG*kG*kG*k[5mC]; antisense) [compound 799612]	50
799622 (kT*kT*k[5mC]*dT*dA*dA*dA*dA*dA*dT*dG*dT*d[5mC]*k[5mC]*k[5mC]*kA; antisense) [compound 799622]	45
799623 (kT*kA*k[5mC]*dA*dA*dT*d[5mC]*dT*d[5mC]*d[5mC]*dT*dG*dG*kA*kA*kG; antisense) [compound 799623]	45
799625 (kA*kA*kT*dG*dA*dA*dA*dG*dT*dA*d[5mC]*dA*dA*kT*k[5mC]*kT; antisense) [compound 799625]	31
799626 (kA*kG*k[5mC]*dT*dT*dG*d[5mC]*dA*d[5mC]*d[5mC]*d[5mC]*dA*dG*k[5mC]*kA*kA; antisense) [compound 799626]	41
799627 (k[5mC]*kA*k[5mC]*dA*dA*dG*d[5mC]*dT*dT*dG*d[5mC]*dA*d[5mC]*k[5mC]*k[5mC]*kA; antisense) [compound 799627]	48
799628 (kA*k[5mC]*kA*d[5mC]*dA*d[5mC]*dA*d[5mC]*dA*dA*dG*d[5mC]*dT*kT*kG*k[5mC]; antisense) [compound 799628]	38
799629 (kT*kA*k[5mC]*dA*d[5mC]*dA*d[5mC]*dA*d[5mC]*dA*dA*dG*d[5mC]*kT*kT*kG; antisense) [compound 799629]	24
799630 (k[5mC]*k[5mC]*k[5mC]*dT*dA*dT*d[5mC]*d[5mC]*d[5mC]*dA*dG*dA*dG*k[5mC]*k[5mC]*kT; antisense) [compound 799630]	43

Same assay, conditions: Hep3B cells, electroporation, 10,000 nM antisense oligonucleotide, approximately 24 hours, RTS5062, relative to untreated control cells

Substance	% inhibition of SMAD7 mRNA expression [%]
799599 (k[5mC]*k[5mC]*kA*dA*d[5mC]*dT*d[5mC]*dT*dG*dA*dA*d[5mC]*dG*kG*kA*kA; antisense) [compound 799599]	12
799600 (kG*k[5mC]*kA*d[5mC]*d[5mC]*dA*dA*d[5mC]*dT*d[5mC]*dT*dG*dA*kA*k[5mC]*kG; antisense) [compound 799600]	63
799601 (kG*kA*kA*dT*dA*d[5mC]*dA*d[5mC]*dT*dG*d[5mC]*dA*d[5mC]*k[5mC]*kA*kA; antisense) [compound 799601]	48
799602 (k[5mC]*k[5mC]*kA*dT*dT*dA*dT*dG*dA*dA*dT*dA*d[5mC]*kA*k[5mC]*kT; antisense) [compound 799602]	51
799613 (kT*k[5mC]*kA*d[5mC]*dA*dT*dT*d[5mC]*dG*dG*d[5mC]*dT*dG*kT*kT*kT; antisense) [compound 799613]	17
799614 (kG*kG*k[5mC]*d[5mC]*dT*dT*dT*dG*dA*dG*d[5mC]*dA*d[5mC]*kA*k[5mC]*k[5mC]; antisense) [compound 799614]	37
799615 (kG*kG*kA*dG*dA*dG*dG*dA*d[5mC]*d[5mC]*dG*dG*d[5mC]*k[5mC]*kT*kT; antisense) [compound 799615]	24
799616 (kG*kG*k[5mC]*dT*d[5mC]*d[5mC]*dT*dA*d[5mC]*d[5mC]*d[5mC]*dG*d[5mC]*k[5mC]*k[5mC]*kA; antisense) [compound 799616]	80
799617 (k[5mC]*kA*kA*d[5mC]*d[5mC]*dT*dG*d[5mC]*dA*dG*d[5mC]*d[5mC]*dA*kG*k[5mC]*kA; antisense) [compound 799617]	50
799618 (kA*kA*k[5mC]*dA*dA*dA*dG*d[5mC]*dT*dG*d[5mC]*dA*dA*kT*kG*k[5mC]; antisense) [compound 799618]	0
799619 (kA*k[5mC]*kG*dA*d[5mC]*d[5mC]*dA*dG*dG*d[5mC]*d[5mC]*dT*dG*kT*k[5mC]*kG; antisense) [compound 799619]	9
799620 (kT*kA*kA*d[5mC]*dG*dA*d[5mC]*d[5mC]*dA*dG*dG*d[5mC]*d[5mC]*kT*kG*kT; antisense) [compound 799620]	31
799621 (kT*kT*kT*d[5mC]*dA*d[5mC]*dT*dG*d[5mC]*dA*dA*dG*dT*k[5mC]*k[5mC]*k[5mC]; antisense) [compound 799621]	49
799632 (k[5mC]*kT*kG*d[5mC]*d[5mC]*dA*dA*dA*dT*d[5mC]*dA*d[5mC]*dA*kA*kA*kG; antisense) [compound 799632]	48
799633 (kA*kG*kA*d[5mC]*dT*dG*d[5mC]*d[5mC]*dA*dA*dA*dT*d[5mC]*kA*k[5mC]*kA; antisense) [compound 799633]	25
799634 (k[5mC]*kA*kG*dA*d[5mC]*dT*dG*d[5mC]*d[5mC]*dA*dA*dA*dT*k[5mC]*kA*k[5mC]; antisense) [compound 799634]	23
799635 (kA*k[5mC]*kA*dG*dA*d[5mC]*dT*dG*d[5mC]*d[5mC]*dA*dA*dA*kT*k[5mC]*kA; antisense) [compound 799635]	28
799636 (k[5mC]*kA*k[5mC]*dA*dG*dA*d[5mC]*dT*dG*d[5mC]*d[5mC]*dA*dA*kA*kT*k[5mC]; antisense) [compound 799636]	55
799637 (kG*k[5mC]*kA*d[5mC]*dA*dG*dA*d[5mC]*dT*dG*d[5mC]*d[5mC]*dA*kA*kA*kT; antisense) [compound 799637]	48
799638 (kA*kG*kT*d[5mC]*dA*dG*dG*d[5mC]*dA*d[5mC]*dA*dG*dA*k[5mC]*kT*kG; antisense) [compound 799638]	53
